According to PubChem BioAssay AID743390 (Vanderbilt Specialized Chemistry Center, 2014):

Target: Phospholipase D1 (Homo sapiens) (UniProt Q13393)
Assay: purified PLD1 inhibitor potency, IC50, confirmation, biochemical, concentration response (AID 743390)
Conditions: purified human PLD1 enzyme activity assay

Phospholipase D1 (Homo sapiens), sequence (Q13393 whole entry, looked up): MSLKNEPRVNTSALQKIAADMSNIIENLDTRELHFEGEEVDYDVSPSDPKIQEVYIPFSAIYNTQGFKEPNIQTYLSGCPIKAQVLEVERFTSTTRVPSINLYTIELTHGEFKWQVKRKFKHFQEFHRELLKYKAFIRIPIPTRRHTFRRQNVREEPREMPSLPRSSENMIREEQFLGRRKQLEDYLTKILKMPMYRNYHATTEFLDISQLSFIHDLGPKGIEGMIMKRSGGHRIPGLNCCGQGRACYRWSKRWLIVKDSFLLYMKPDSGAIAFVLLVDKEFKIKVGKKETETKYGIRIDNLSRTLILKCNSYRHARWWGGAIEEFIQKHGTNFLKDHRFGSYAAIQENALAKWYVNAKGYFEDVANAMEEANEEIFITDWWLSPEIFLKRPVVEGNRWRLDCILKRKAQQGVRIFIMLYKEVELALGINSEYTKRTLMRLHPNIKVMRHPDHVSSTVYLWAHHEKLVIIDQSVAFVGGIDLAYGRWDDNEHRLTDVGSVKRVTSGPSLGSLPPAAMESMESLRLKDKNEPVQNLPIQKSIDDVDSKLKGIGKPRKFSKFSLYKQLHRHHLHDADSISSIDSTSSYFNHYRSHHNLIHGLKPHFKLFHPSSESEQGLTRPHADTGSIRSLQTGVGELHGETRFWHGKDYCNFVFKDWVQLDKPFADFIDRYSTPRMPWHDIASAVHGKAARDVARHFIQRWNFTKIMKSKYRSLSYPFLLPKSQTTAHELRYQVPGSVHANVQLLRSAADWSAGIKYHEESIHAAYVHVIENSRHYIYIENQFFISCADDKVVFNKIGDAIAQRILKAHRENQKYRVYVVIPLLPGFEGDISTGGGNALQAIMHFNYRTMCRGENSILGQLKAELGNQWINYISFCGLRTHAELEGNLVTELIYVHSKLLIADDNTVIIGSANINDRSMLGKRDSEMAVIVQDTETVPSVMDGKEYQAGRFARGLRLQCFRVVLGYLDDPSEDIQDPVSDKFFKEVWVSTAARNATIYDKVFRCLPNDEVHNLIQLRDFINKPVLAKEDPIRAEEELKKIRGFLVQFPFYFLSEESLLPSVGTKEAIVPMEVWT

| SMILES | IC50 |
| --- | --- |
| O=C(NCCN1CCC2(CC1)C(=O)NCN2Cc1cccnc1)c1cc2ccccc2o1 | 20 µM |
| O=C(NCCN1CCC2(CC1)C(=O)NCN2Cc1cccnc1)c1ccc2ccccc2c1 | 20 µM |
